{"source": "patent US12467038B2", "about": "“Methods of culturing human pluripotent cells” (Hadasit Medical Research Services and Development Ltd., priority 2019, dated 2025)", "key": {"[1]": {"test_system": "FGF5-GFP hPSC reporter clones (HES-1)", "assay": "FACS analysis of FGF5-GFP expression in hPS-FGF5 reporter clones", "assay_type": "cell-based, human", "procedure": "hPSC culture—hPSC culture—hPSC lines HES-1, HES-2 (10), HADC100, HADC102 (36) and H7 (9) were cultured on human foreskin feeders in serum free medium as described (30, 87). hPSC culturing in suspension was performed as reported (31) with minor modifications of the culture medium that was composed of Neurobasal medium, 14% KO-SR, L-glutamine 2 mM, 50 units/ml penicillin, 50 μg/ml streptomycin, 1% nonessential amino acids (all from Invitrogen, Carlsbad, Calif., USA). The medium was supplemented with FGF2 20 ng/ml, and activin A 25 ng/ml (both from Peprotech, Rocky Hill, N.J., USA), and laminin 0.5 μg/ml (Sigma-Aldrich, St. Louis, Mo., USA). For hPSC culturing on mouse LN111, 3-D Culture Matrix Laminin I (CULTREX, TREVIGEN, #3446-005-01, Gaithersburg, Md., USA) was diluted to a concentration of 1 mg/ml. Tissue culture dishes were coated with LN111, incubated overnight at 37° C. to promote matrix gelling, and washed with PBS. hPSCs were cultured on LN111 in a chemically defined medium composed of DMEM/F12, B27 supplement (1:50), N2 supplement (1:100) 2 mM L-glutamine, 50 units/ml penicillin, 50 μg/ml streptomycin (all from Invitrogen), and supplemented with 20 ng/ml bFGF (Peprotech). The cells were cultured in 5% CO2, 5% O2 incubator They were passaged every 7 days as small clusters by treatment with 1 mg/ml collagenase type IV (Invitrogen), and plated in a medium containing 5 μM ROCK inhibitor. hPSC culture under naïve conditions was performed using the 5iLFA protocol (20).\nGeneration of FGF5 reporter cell lines—a 3 kb fragment of human FGF5 promoter (GeneBank accession number NT_016354) was amplified from HES-1 genomic DNA using Expand High Fidelity PCR System (Roche Applied Science, Penzberg, Germany) with primers CG ? TTGCTTTCCTGGCTGGGAG (SEQ ID NO: 1) (EcoRI) and CA ? AGCCTCGGGGAAGAGAAGG (SEQ ID NO: 2) (ApaI). […] Single colonies were picked, replated, and analyzed for the integrity of the integrated reporter vector. […]"}, "LN-hPSCs": {"test_system": "LN-hPSCs", "assay": "FACS analysis of pluripotency cell-surface markers", "assay_type": "cell-based, human", "settings": "HES-1 cells cultured on LN111", "procedure": "Signaling pathways analysis—hPSCs were cultured on LN111 for 2 days in complete medium, and then for additional 3-5 days in a medium+/−FGF2 in the presence of the following small molecules: PD032590 1 μM (Peprotech), LY294002 10 μM, SB431542 10 μM, CHIR99021 3 μM (all from Cayman Chemical, Michigan, USA), XAV939 2.5 μM (Peprotech), BMP4 50 ng/ml (Biogems-Peprotech). FACS analysis—FACS analyses were performed using the following primary antibodies: mouse IgM anti-TRA-1-60 (1:100; mab4360, R&D), and mouse IgM anti-TRA-1-81 (1:100; mab4381, R&D), and Rat IgM anti-SSEA-3. Staining with respective isotype control antibodies (all from eBiosciences) served as controls. Detection of primary antibodies was performed using the following secondary antibodies: FITC-conjugated Polyclonal Goat Anti-Mouse Immunoglobulins (1:100; Dako, Glostrup, Denmark), APC-conjugated Goat anti-Mouse IgM/G (1:200; Cat. No. 1020-11, SouthernBiotech, Birmingham, Ala., USA), and APC-conjugated anti-Rat (1:200; eBioscience). FACS analysis was performed on a FACScalibur system (Becton-Dickinson, San Jose, Calif.) using the Cellquest software. A detailed FACS procedure is described elsewhere. FACS analysis—FACS analyses for pluripotency marker expression were performed using mouse anti-TRA-1-60 (1:100; mab4360, R&D), and mouse anti-TRA-1-81 (1:100; mab4381, R&D). […]"}}, "data": [{"substance": "LN111: mouse LN111, 3-D Culture Matrix Laminin I (CULTREX, TREVIGEN), coating of culture dishes", "values": [{"measurement": "percentage of FGF5-GFP expressing cells", "setting": "[1]; reporter clone #1 cultured on LN111", "result": "86%±2"}, {"measurement": "percentage of FGF5-GFP expressing cells", "setting": "[1]; reporter clone #2 cultured on LN111", "result": "90%±1"}, {"measurement": "percentage of FGF5-GFP expressing cells", "setting": "[1]; reporter clone #3 cultured on LN111", "result": "79%±3"}, {"measurement": "cells expressing TRA-1-60 and TRA-1-81", "setting": "LN-hPSCs", "result": "over 90%"}]}]}
